Measured values as given in US5461046A, “1-,2-,3-,4-,5-,6-,7-,8-, and/or 9-substituted dibenzoxazepine compounds, pharmaceutical compositions and methods for treating pain” (G. D. Searle & Co., priority 1993, dated 1995).
Read-outs that look alike come from different tables or passages of the source.

Key:
[1] = biological target: T1, prostaglandin E2-induced contractions of segments of guinea pig ileum (Cavia porcellus, UniProt A0A286XHJ6); experiment: Prostaglandin (PGE) Antagonism Assay in guinea pig ileum; conditions: initial concentration 3 micromolar; estimated pA2 (slope -1.0 assumed) or Schild plot pA2
T1 construct: The ilea were then quickly removed from the guinea pigs; from tissue; host or cells: ileum segments of male albino guinea pigs
T1 sequence (A0A286XHJ6 1-405): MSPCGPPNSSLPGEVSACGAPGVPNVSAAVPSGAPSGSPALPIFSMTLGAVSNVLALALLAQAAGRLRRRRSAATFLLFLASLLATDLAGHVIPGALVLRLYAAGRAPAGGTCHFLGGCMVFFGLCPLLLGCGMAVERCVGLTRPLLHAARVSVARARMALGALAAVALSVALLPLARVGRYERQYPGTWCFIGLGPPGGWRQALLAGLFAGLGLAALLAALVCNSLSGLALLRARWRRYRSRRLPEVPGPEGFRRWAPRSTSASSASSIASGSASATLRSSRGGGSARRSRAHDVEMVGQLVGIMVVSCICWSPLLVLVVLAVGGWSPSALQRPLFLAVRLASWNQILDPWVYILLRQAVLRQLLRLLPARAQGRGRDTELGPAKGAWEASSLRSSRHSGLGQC
Description: In order to determine the effectiveness of several of the compounds of the present invention ("test compounds") as prostaglandin E2 antagonists,a prostaglandin antagonism assay was conducted, as described below, to determine the ability of these compounds to inhibit prostaglandin E2 -induced contractions of segments of guinea pig ileum.
Male albino guinea pigs weighing 200 to 500 grams were sacrificed by cervical dislocation. The ilea were then quickly removed from the guinea pigs and placed in a modified Tyrode solution, a solution which is known to those skilled in the art, containing one-half of the usual amount of magnesium ions.
Segments of ileum about 2 cm long were then cut and mounted in a 10-mL tissue bath containing the modified Tyrode solution. The solution was maintained at 37° C. and aerated with a gaseous mixture of 95% oxygen and 5% carbon dioxide. Data for a control prostaglandin E2 dose response curve plotting concentration of prostaglandin E2 versus the intensity of contractions, detected isotonically, was then obtained by experimentally adjusting the dose of the prostaglandin E2 being injected into the tissue bath, in a manner known by those of skill in the art.
Solutions or suspensions containing an initial concentration (3 micromolar) of a test compound in modified Tyrode solution ("test solutions/suspensions") were then separately substituted for the control bath solution. Each test solution/suspension was then kept in constant contact with the ileum tissue, except for brief periods to drain the bath in preparation for rinsing with fresh test solution/suspension. A second prostaglandin E2 dose response curve was then generated for prostaglandin E2 in the presence of a test compound.
A dose ratio of EC50 doses was then calculated from the results of each test in a manner known by those of skill in the art. A test compound was determined to be "active" if the initial concentration used yielded at least a two-fold shift (dose ratio greater than or equal to 2) in the dose response curve for prostaglandin E2.
The compounds of the present invention which were tested in this assay, and for which results are presented in Table 2, correspond to the particular examples specified in Table 2.

[2] = test system: phenylbenzoquinone (PBQ)-induced writhing in mice; experiment: Writhing Assay (phenylbenzoquinone-induced writhing, analgesia); type: in vivo, Charles River male albino mice; conditions: for responders at 30 mg/kg: Mus musculus, 25 min, 25 min before PBQ i.p., number of mice out of ten with analgesia
Text: The Writhing Assay is one of the most widely-used experimental procedures for measuring the analgesic activity of different narcotic and nonnarcotic analgesic agents, and involves the continuous, chemically-induced pain of visceral origin to an animal, such as a mouse or rat. [Gyires et al., Arch. int. Pharmacodyn, 267, 131-140 (1984); C. Vander Wende et al., Fed. Proc., 15, 494 (1956); Koster et al., Fed. Proc., 18, 412 (1959); and Witken et al., J. Pharmacol. exp. Ther., 133, 400-408 (1961).] Chemicals which may be used to induce this pain include phenylbenzoquinone (PBQ) and acetic acid. As a result of the chemical irritation to the animal, a characteristic stretching and writhing of the animal (dorsiflexion of the animal's back, extension of its hindlimbs and the strong contraction of its abdominal musculature) will generally occur. […] Drugs which reduce the number of writhes of the animal appear to restore the normal nociceptive threshold of the animal.
Charles River male albino mice, weighing 20 to 30 grams were used in this assay.
Twenty-five minutes after subcutaneous or intragastric administration to ten mice of 30 mg per kilogram of body weight of a compound of the present invention ("test compound"), […] per 10 g of body weight of a 0.025% w/v solution of PBQ was injected intraperitoneally into each mouse. Ten mice which were given saline in place of a test compound of the invention were used as a control group.
Five minutes later, each mouse was individually placed into a glass beaker for observation, and the number of writhes occurring during the following ten-minute period was counted.
A test compound was considered to have produced analgesia in a mouse if, in accordance with the conditions set forth above, and under the test criteria employed for this assay, after the administration of 30 mg per kilogram of body weight of a compound of the present invention to the mouse, the number of writhes elicited by a mouse injected with PBQ was equal to, or less than, one-half the median number of writhes recorded for the saline-treated control group of mice that day, as described by Taber in "Predictive Value of Analgesic Assays in Mice and Rats," Advances in Biochemical Psychopharmacology, 8, 191 (1974).
The results for the particular compounds of the present invention analyzed in this assay, and discussed in the examples identified below which correspond thereto, are presented in Table 2 hereinbelow under the heading "WRITHING ASSAY." The fractions indicate the number of mice out of ten in which a test compound produced analgesia.

[3] = test system: stimulant actions of prostaglandins on isolated smooth muscle preparations; conditions: cited from earlier work
[4] = test system: micturition reflex in rats; conditions: urethane-anesthetized rats; cited from earlier work
[5] = ip, 30 mg per kg i.g., read-out: WRITHING ASSAY Number Out of Ten I.G. (converted)
[6] = sc, 30 mg per kg s.c., read-out: WRITHING ASSAY Number Out of Ten S.C.

Row | Structure (SMILES) | Kb [1] [µM] | responders at 30 mg/kg [2, 5] [%] | responders at 30 mg/kg [2, 6] [%] | potency in the Writhing Assay (in words) ([2]; 30 mg per kg s.c. or i.g.) | inhibition of stimulant actions of prostaglandins [3] | bladder capacity [4] | voiding efficiency of micturition [4]
1 | CCS(=O)(=O)CCC(=O)NNC(=O)N1Cc2ccccc2Oc2ccc(C)cc21 [Example 17, 8-methyldibenz[b,f][1,4]oxazepine-10(11H)-carboxylic acid, 2-[3-(ethylsulfonyl)-1-oxopropyl]hydrazide] | 2.09 | 22.2 | 20 | – | – | – | –
2 | CCS(=O)(=O)CCC(=O)NNC(=O)N1Cc2cccc(Cl)c2Oc2ccccc21 [Example 18, 4-chlorodibenz[b,f][1,4]oxazepine-10(11H)-carboxylic acid, 2-[3-(ethylsulfonyl)-1-oxopropyl]hydrazide] | 2.69 | 40 | 40 | – | – | – | –
3 | CCS(=O)(=O)CCC(=O)NNC(=O)N1Cc2ccccc2Oc2ccc(O)cc21 [Example 19, 8-hydroxydibenz[b,f][1,4]oxazepine-10(11H)-carboxylic acid, 2-[3-(ethylsulfonyl)-1-oxopropyl]hydrazide] | 2.57 | 40 | 30 | – | – | – | –
4 | CCS(=O)(=O)CCC(=O)NNC(=O)N1Cc2ccccc2Oc2ccc(C(F)(F)F)cc21 [Example 20, 8-(trifluoromethyl)dibenz[b,f][1,4]oxazepine-10(11H)-carboxylic acid, 2-[3-(ethylsulfonyl)-1-oxopropyl]hydrazide] | 1.26 | 60 | 60 | most potent compound of the invention tested in this assay | – | – | –
5 | CCS(=O)(=O)CCC(=O)NNC(=O)N1Cc2ccccc2Oc2ccccc21 [Example 21, Dibenz[b,f][1,4]oxazepine-10(11H)-carboxylic acid, 2-[3-(ethylsulfonyl)-1-oxopropyl]hydrazide] | 1.05 | 50 | 10 | – | – | – | –
6 | O=C(Cc1ccccc1)NNC(=O)N1Cc2ccccc2Oc2ccc(Cl)cc21 [SC-18637] | – | – | – | – | inhibit the stimulant actions of prostaglandins on isolated smooth muscle preparations | – | –
7 | CC(=O)NNC(=O)N1Cc2ccccc2Oc2ccc(Cl)cc21 [SC-19220] | – | – | – | – | inhibit the stimulant actions of prostaglandins on isolated smooth muscle preparations | increased | reduced
